From patent US6172185A, “Antimicrobial cationic peptide derivatives of bactenecin” (priority 1998, dated 2001)
Where a SMILES comes first, the peptide text is derived from it. Where no end group is shown, it is not given here.

Legend:
E. coli DC2 = format: cell-based, Escherichia coli; conditions: E. coli DC2, 0.1M KCl
Protocol: The minimal inhibitory concentration (MIC) of peptides was determined by a modified two-fold microtitre broth dilution method modified from that of Steinberg et al (Steinberg, Antimicrob. Agents Chemother. 41:1738, 1997). Using the classical method (Amsterdam, Antibiotics in Laboratory Medicine (Lorian, V., ed) pp. 72-78, 1991), higher concentrations of peptides tend to precipitate in the LB broth, thus the concentrations of peptides in the sequential wells are not accurate. Also the peptides stick to the most readily available (tissue-culture treated polystyrene) 96-well microtitre plates. Therefore the 2× series of dilutions was performed in Eppendoff tubes (polypropylene) before mixing with LB broth. Serial of two fold dilutions of peptides ranging from 640 μg/ml to 1.25 μg/ml were made in 0.2% BSA, 0.01% acetic acid buffer in the Eppendoff tubes. Ten μl of each concentration was added to each corresponding well of a 96-well microtiter plate (polypropylene cluster; Costar Corporation, Cambridge, Mass.). Bacteria were grown overnight and diluted 10-5 into fresh LB broth or Todd Hewitt broth for Streptococcus. LB medium contained 10 g/1l tryptone and 5 g/yeast extract, with no salt. Todd Hewitt contained 500 g/l beef heart infusion, 20 g/l bacto neopeptone, 2 g/l bacto dextrose, 2 g/l sodium chloride, 0.4 g/l disodium phosphate, 2.5 g/l sodium carbonate. One hundred […] containing about 10^4-10^5 CFU/ml of tested bacteria was added to each well. […]
It has been proposed that the antibacterial target of cationic peptides be at the cytoplasmic membrane. […] Once inside the cells, diS-C3-(5) becomes concentrated and self-quenches its own fluorescence. If peptides form channels or otherwise disrupt the membrane, the membrane potential will be dissipated, and the DiS-C3-(5) will be released into the medium causing the fluorescence to increase, as can be detected by fluorescent spectrometry. […] Therefore the MICs of bactenecin, reduced bactenecin and bac2S in the presence of 0.1M KCl were determined and shown to be 8-16 μg/ml (i.e. 4 to 8 fold higher than in low salt). […]

E.facaelis = experiment: MIC, modified two-fold microtitre broth dilution; format: cell-based, Enterococcus faecalis
Description: (§1) Bacterial strains for antimicrobial activity testing included Escherichia coli UB1005 and its antibiotic supersusceptible derivative DC2 (Richmond et al., Antimicrob. Agents Chemother. 10:215, 1976), Pseudomonas aeruginosa K799 and its antibiotic-supersusceptible derivative Z61 (Angus et al., Antimicrob. Agents Chemother. 21:299, 1982), Salmonella typhimurium 14028s and its defensin-supersusceptible derivative MS7953s (Fields et al., Science, 243:1059, 1989), Staphylococcus aureus ATCC25923 and a clinical isolate Staphylococcus aureus SAP1007. Other Gram-positive bacterial strains include Staphylococcus epidermidis (clinical isolate) and Enterococcus faecalis ATCC29212, Listeria monocytogenes, Corynebacterium xerosis, Streptococcus pneumoniae ATTC49619, Streptococcus pyogenes ATTC19615, Streptococcus mitis.
(§2) The minimal inhibitory concentration (MIC) of peptides was determined by a modified two-fold microtitre broth dilution method modified from that of Steinberg et al (Steinberg, Antimicrob. Agents Chemother. 41:1738, 1997). Using the classical method (Amsterdam, Antibiotics in Laboratory Medicine (Lorian, V., ed) pp. 72-78, 1991), higher concentrations of peptides tend to precipitate in the LB broth, thus the concentrations of peptides in the sequential wells are not accurate. Also the peptides stick to the most readily available (tissue-culture treated polystyrene) 96-well microtitre plates. Therefore the 2× series of dilutions was performed in Eppendoff tubes (polypropylene) before mixing with LB broth. Serial of two fold dilutions of peptides ranging from 640 μg/ml to 1.25 μg/ml were made in 0.2% BSA, 0.01% acetic acid buffer in the Eppendoff tubes. Ten μl of each concentration was added to each corresponding well of a 96-well microtiter plate (polypropylene cluster; Costar Corporation, Cambridge, Mass.). Bacteria were grown overnight and diluted 10-5 into fresh LB broth or Todd Hewitt broth for Streptococcus. LB medium contained 10 g/1l tryptone and 5 g/yeast extract, with no salt. Todd Hewitt contained 500 g/l beef heart infusion, 20 g/l bacto neopeptone, 2 g/l bacto dextrose, 2 g/l sodium chloride, 0.4 g/l disodium phosphate, 2.5 g/l sodium carbonate. One hundred […] containing about 10^4-10^5 CFU/ml of tested bacteria was added to each well. The plate was incubated at 37° C. overnight. The MIC was taken as the concentration at which greater than 90% of growth inhibition was observed.

Strep. pneumoniae = experiment: MIC, modified two-fold microtitre broth dilution; format: cell-based, Streptococcus pneumoniae; conditions: for MIC Strep. pneumonia: Table IID, linear (Group 2): reduced forms of the peptides, Bac (Oxidized) as comparator; for MIC S. pneumonia: Table IIIB, non-linear positive-charge modification derivatives
Description: as §1, §2

Strep. pyogenes = experiment: MIC, modified two-fold microtitre broth dilution; format: cell-based, Streptococcus pyogenes; conditions: for MIC Strep. pyogeness: Table IID, linear (Group 2): reduced forms of the peptides, Bac (Oxidized) as comparator
Description: as §1, §2

Strep. mitis = experiment: MIC, modified two-fold microtitre broth dilution; format: cell-based, Streptococcus mitis; conditions: for MIC Strep. mitis: Table IID, linear (Group 2): reduced forms of the peptides, Bac (Oxidized) as comparator
Description: as §1, §2

E.coli UB1005 = experiment: MIC, modified two-fold microtitre broth dilution; format: cell-based, Escherichia coli
Description: as §1, §2

Staph. aureus = experiment: MIC, modified two-fold microtitre broth dilution; format: cell-based, Staphylococcus aureus
Description: as §1, §2

Staph. epidermidis = experiment: MIC, modified two-fold microtitre broth dilution; format: cell-based, Staphylococcus epidermidis
Description: as §1, §2

S.typhimurium = experiment: MIC, modified two-fold microtitre broth dilution; format: cell-based, Salmonella typhimurium
Description: as §1, §2

P.aeruginosa = experiment: MIC, modified two-fold microtitre broth dilution; format: cell-based, Pseudomonas aeruginosa
Description: as §1, §2

C. xerosis = experiment: MIC, modified two-fold microtitre broth dilution; format: cell-based, Corynebacterium xerosis
Description: as §1, §2

Listeria monocytogenes = experiment: MIC, modified two-fold microtitre broth dilution; format: cell-based
Description: as §1, §2

[1] = Table IID, linear (Group 2): reduced forms of the peptides, Bac (Oxidized) as comparator
[2] = Table IIIB, non-linear positive-charge modification derivatives
[3] = Table IIC, linear (Group 2): reduced forms of the peptides, Bac (Oxidized) as comparator
[4] = table IIA, non-linear positive-charge modification derivatives
[5] = Table IVB, non-linear hydrophobicity modification derivatives
[6] = Table IVA, non-linear hydrophobicity modification derivatives

| Compound | Minimal Agglutinating Concentration, Oxidized Form (Human Red Blood Cells) [µg/mL] | MIC E.facaelis (E.facaelis; [1]) [µg/mL] | MIC E.facaelis (E.facaelis; [2]) [µg/mL] | MIC Strep. pneumonia (Strep. pneumoniae) [µg/mL] | MIC S. pneumonia (Strep. pneumoniae) [µg/mL] | MIC Strep. pyogeness (Strep. pyogenes) [µg/mL] | MIC Strep. pyogenes (Strep. pyogenes; [2]) [µg/mL] | MIC Strep. mitis (Strep. mitis) [µg/mL] | MIC S. mitis (Strep. mitis; [2]) [µg/mL] | MIC E.coli UB1005 (E.coli UB1005; [3]) [µg/mL] | MIC E.coli UB1005 (E.coli UB1005; [4]) [µg/mL] | MIC Staph. aureus (Staph. aureus; [1]) [µg/mL] | MIC Staph. aureus (Staph. aureus; [2]) [µg/mL] | MIC Staph. epidermidis (Staph. epidermidis; [1]) [µg/mL] | MIC Staph. epidermidis (Staph. epidermidis; [2]) [µg/mL] | MIC S. typhimurium (S.typhimurium; [3]) [µg/mL] | MIC P. aeruginosa (P.aeruginosa; [3]) [µg/mL] | MIC C. xerosis (C. xerosis; [1]) [µg/mL] | Minimal Agglutinating Concentration, Reduced Form (Human Red Blood Cells) [µg/mL] | MIC Listeria (Listeria monocytogenes; [1]) [µg/mL] | further results |
| --- | --- | --- | --- | --- | --- | --- | --- | --- | --- | --- | --- | --- | --- | --- | --- | --- | --- | --- | --- | --- | --- |
| CC[C@H](C)[C@H](NC(=O)[C@H](CCCNC(=N)N)NC(=O)[C@H](CS)NC(=O)[C@H](CC(C)C)NC(=O)[C@@H](N)CCCNC(=N)N)C(=O)N[C@H](C(=O)N[C@H](C(=O)N[C@H](C(=O)N[C@@H](CCCNC(=N)N)C(=O)N[C@H](C(=O)N[C@@H](CS)C(=O)N[C@@H](CCCNC(=N)N)C(=O)O)C(C)C)[C@@H](C)CC)C(C)C)C(C)C [Bac (Reduced), RLCRIVVIRVCR] (H-RLCRIVVIRVCR-OH) | 16 | – | – | – | – | – | – | – | – | – | – | – | – | – | – | – | – | – | – | – | MIC in the presence of 0.1M KCl (E. coli DC2): 8 to 16 µg/mL; concentration causing agglutination of human red blood cells (Human Red Blood Cells): 16000 to 32000 ng/mL |
| RLSRIVVIRVSR [Bac 2S, RLSRIVVIRVSR] | > 64 | – | – | – | – | – | – | – | – | – | – | – | – | – | – | – | – | – | – | – | MIC in the presence of 0.1M KCl (E. coli DC2): 8 to 16 µg/mL |
| RRLCRIVVIRVCRR [Bac 2R, tested oxidized and reduced] | 64 | 4 | 32 | > 64 | > 64 | 16 | 8 | 0.5 | 0.5 | 4 | 2 | > 64 | 64 | 4 | 8 | 32 | 16 | 0.25 | 32 | 0.5 | MIC against S. typhimurium, times better than native bactenecin (S.typhimurium): 2 X; MIC S. typhimurium (S.typhimurium; [4]): 4 µg/mL; MIC against P. aeruginosa, times better than native bactenecin (P.aeruginosa): 2 X; MIC P. aeruginosa (P.aeruginosa; [4]): 4 µg/mL; MIC C. xerosis (C. xerosis; [2]): 1 µg/mL; MIC Listeria (Listeria monocytogenes; [2]): < 0.125 µg/mL |
| RRLCRIVWVIRVCRR [Bac 2R, W, tested oxidized and reduced] | 32 | > 64 | – | 64 | – | 32 | – | 2 | – | > 64 | – | > 64 | – | 32 | – | > 64 | > 64 | 2 | 8 | 4 | MIC E.facaelis (E.facaelis; [5]): 2 µg/mL; MIC S. pneumoniae (Strep. pneumoniae; [5]): 8 µg/mL; MIC Strep. pyogenes (Strep. pyogenes; [5]): 1 µg/mL; MIC S. mitis (Strep. mitis; [5]): 0.25 µg/mL; MIC E.coli UB1005 (E.coli UB1005; [6]): 2 µg/mL; MIC Staph. aureus (Staph. aureus; [5]): 2 µg/mL; MIC Staph. epidermidis (Staph. epidermidis; [5]): 1 µg/mL; MIC S. typhimurium (S.typhimurium; [6]): 2 µg/mL; MIC P. aeruginosa (P.aeruginosa; [6]): 2 µg/mL; MIC C. xerosis (C. xerosis; [5]): 0.25 µg/mL; concentration causing agglutination of human red blood cells (Human Red Blood Cells): 16000 to 32000 ng/mL; MIC Listeria (Listeria monocytogenes; [5]): 0.25 µg/mL |
| RRRCPIVVIRVCRR [Bac 3R, P, tested oxidized and reduced] | 64 | 64 | 32 | > 64 | > 64 | 16 | 8 | 0.5 | 1 | 8 | 2 | > 64 | > 64 | 16 | 16 | > 64 | > 64 | 0.5 | 16 | 2 | MIC S. typhimurium (S.typhimurium; [4]): 8 µg/mL; MIC P. aeruginosa (P.aeruginosa; [4]): 8 µg/mL; MIC C. xerosis (C. xerosis; [2]): 4 µg/mL; MIC Listeria (Listeria monocytogenes; [2]): 0.5 µg/mL |
| RRRLCPIVIRVCRR [Bac 3R, P, (V), tested oxidized and reduced] | > 64 | 32 | > 64 | > 64 | > 64 | 8 | 4 | 1 | 1 | 4 | 2 | > 64 | > 64 | 8 | 16 | 32 | 32 | 0.5 | 32 | 1 | MIC S. typhimurium (S.typhimurium; [4]): 8 µg/mL; MIC P. aeruginosa (P.aeruginosa; [4]): 8 µg/mL; MIC C. xerosis (C. xerosis; [2]): 4 µg/mL; MIC Listeria (Listeria monocytogenes; [2]): 1 µg/mL |
